# Patent US20240148821A1, “PHARMACEUTICAL USE OF CYCLIC PEPTIDE COMPOUND” (CHUGAI SEIYAKU KABUSHIKI KAISHA, priority 2021, published 2024)
# Numbered stars: 1 amine (or outer) side, 2 acyl side, 3 side chain; on linkers, the order of the positions; unused ones are H or OH. Bridge positions count the residues as written; N and C are the ends. Square brackets hold non-standard residues; d marks the D form. Peptide text beside a SMILES is read from it. * marks the point of attachment. hPhe(3-Cl-4-CF3) = N[C@@H](CCc1ccc(C(F)(F)F)c(Cl)c1)C(=O)O; hPhe(4-CF3) = N[C@@H](CCc1ccc(C(F)(F)F)cc1)C(=O)O; NMePhe(4-Cl) = CN[C@@H](Cc1ccc(Cl)cc1)C(=O)O; X41 = CN([C@@H](CC=C1CCOCC1)C(=O)[*:2])[*:1]; NMeGly(cPent) = CN[C@H](C(=O)O)C1CCCC1; NMeCha = CN[C@@H](CC1CCCCC1)C(=O)O; NMeChg = CN[C@H](C(=O)O)C1CCCCC1; NMeE = CN[C@@H](CCC(=O)O)C(=O)O; NMeD = CN[C@@H](CC(=O)O)C(=O)O; CH2CONHtBu = CC(C)(C)NC(=O)C*; NMeL = CN[C@@H](CC(C)C)C(=O)O; NMeV = CN[C@H](C(=O)O)C(C)C; d(β3hA) = C[C@@H](N)CC(=O)O; Azetidin(1-yl) = C1CN(*)C1; NMeS = CN[C@@H](CO)C(=O)O; Morpholide = C1CN(*)CCO1; NMeA = CN[C@@H](C)C(=O)O; Piperidide = C1CCN(*)CC1; Ac5c = NC1(C(=O)O)CCCC1; Aze = O=C(O)[C@@H]1CCN1; CH2CMe2OH = CC(C)(O)C*; Isopentyl = CC(C)CC*; Sar = CNCC(=O)O
# Target: protein-protein interaction between Kras and SOS1 (biotin-tagged human Kras loaded with GDP, His-tagged human SOS1) (Homo sapiens (Human), UniProt P01116, G12D)
# Assay: Protein-protein interaction inhibition between Kras and SOS1 (KrasG12D-SOS PPI) using AlphaScreen;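 further: kras produced in E. coli, Ni-coupled donor beads and streptavidin acceptor beads, excitation 680 nm with emission detected at 520–620 nm via singlet oxygen transfer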
# Assay type: biochemical
# Conditions: AlphaScreen; biotin-tagged human Kras loaded with GDP, His-tagged human SOS1; read-out: KRAS G12D-SOS PPI IC50
row,SMILES,IC50 [nM]
1,CC[C@H](C)[C@@H]1NC(=O)[C@H](C)N(C)C(=O)C[C@@H](C)NC(=O)[C@H](CC(C)C)N(C)C(=O)[C@H](C(C)C)N(C)C(=O)[C@H](CC(C)C)N(C)C(=O)[C@H](CCc2ccc(C(F)(F)F)cc2)NC(=O)CN(C)C(=O)[C@H](Cc2ccc(Cl)cc2)N(C)C(=O)CN(C)C(=O)CN(C)C1=O [Compound 588] (cyclo(I[Sar][Sar][NMePhe(4-Cl)][Sar][hPhe(4-CF3)][NMeL][NMeV][NMeL][d(β3hA)][NMeA])),360
2,CC[C@H](C)[C@@H]1NC(=O)[C@H](CC(C)C)N(C)C(=O)C[C@@H](C)NC(=O)[C@H](CC(C)C)N(C)C(=O)C2(CCCC2)NC(=O)[C@H](COCC(=O)NC(C)(C)C)N(C)C(=O)[C@H](CCc2ccc(C(F)(F)F)c(Cl)c2)NC(=O)CN(C)C(=O)[C@H](COCCC(C)C)N(C)C(=O)CN(C)C(=O)CN(C)C1=O [Compound 1492] (cyclo([Ac5c][NMeL][d(β3hA)][NMeL]I[Sar][Sar][NMeS](Isopentyl)[Sar][hPhe(3-Cl-4-CF3)][NMeS](CH2CONHtBu))),240
3,"CC[C@H](C)[C@@H]1NC(=O)[C@H](CC(C)C)N(C)C(=O)C[C@@H](C(=O)N2CCCCC2)N(C)C(=O)[C@H](C2CCCCC2)N(C)C(=O)C2(CCCC2)NC(=O)[C@H](CC=C2CCOCC2)N(C)C(=O)[C@H](CCc2ccc(C(F)(F)F)c(Cl)c2)NC(=O)CN(C)C(=O)[C@H](CC2CCCCC2)N(C)C(=O)CN(C)C(=O)CN(C)C1=O [Compound 2053, (8S,11S,17S,26S,29S,33S,36S)-11-[2-[3-chloro-4-(trifluoromethyl)phenyl]ethyl]-36-cyclohexyl-17-(cyclohexylmethyl)-29-isobutyl-9,15,18,21,24,30,34,37-octamethyl-26-[(1S)-1-methylpropyl]-33-(piperidine-1-carbonyl)-8-(2-tetrahydropyran-4-ylideneethyl)-6,9,12,15,18,21,24,27,30,34,37-undecazaspiro[4.33]octatriacontane-7,10,13,16,19,22,25,28,31,35,38-undecone] ([NMeL]I[Sar][Sar][NMeCha][Sar][hPhe(3-Cl-4-CF3)][X41][Ac5c][NMeChg][NMeD]-Piperidide; lactam N-11)",10
4,CC[C@H](C)[C@@H]1NC(=O)[C@H](CC2CCCCC2)N(C)C(=O)C[C@@H](C(=O)N2CCCCC2)N(C)C(=O)[C@H](C(C)C)N(C)C(=O)C2(CCCC2)NC(=O)[C@@H]2CCCN2C(=O)[C@H](CCc2ccc(C(F)(F)F)c(Cl)c2)NC(=O)CN(C)C(=O)[C@H](CC2CCCCC2)N(C)C(=O)[C@@H]2CCN2C(=O)[C@H](C)N(C)C1=O [Compound 572] ([NMeCha]I[NMeA][Aze][NMeCha][Sar][hPhe(3-Cl-4-CF3)]P[Ac5c][NMeV][NMeD]-Piperidide; lactam N-11),39
5,CC[C@H](C)[C@@H]1NC(=O)[C@H](CC(C)C)N(C)C(=O)C[C@@H](C)NC(=O)[C@H](C(C)C)N(C)C(=O)C2(CCCC2)NC(=O)[C@@H]2CCCN2C(=O)[C@H](CCc2ccc(C(F)(F)F)c(Cl)c2)NC(=O)CN(C)C(=O)[C@H](CC2CCCCC2)N(C)C(=O)[C@@H]2CCN2C(=O)[C@H](COCC(C)(C)O)N(C)C1=O [Compound 1122] (cyclo([Ac5c][NMeV][d(β3hA)][NMeL]I[NMeS](CH2CMe2OH)[Aze][NMeCha][Sar][hPhe(3-Cl-4-CF3)]P)),67
6,CC[C@H](C)[C@@H]1NC(=O)[C@H](CC(C)C)N(C)C(=O)C[C@@H](C(=O)N2CCOCC2)N(C)C(=O)[C@H](C2CCCC2)N(C)C(=O)C2(CCCC2)NC(=O)[C@H](CCC(=O)N2CCC2)N(C)C(=O)[C@H](CCc2ccc(C(F)(F)F)c(Cl)c2)NC(=O)CN(C)C(=O)[C@H](CC2CCCCC2)N(C)C(=O)[C@@H]2CCN2C(=O)[C@H](C)N(C)C1=O [Compound 2103] ([NMeL]I[NMeA][Aze][NMeCha][Sar][hPhe(3-Cl-4-CF3)][NMeE](Azetidin(1-yl))[Ac5c][NMeGly(cPent)][NMeD]-Morpholide; lactam N-11),8.3
